Source: US12503453B2, “USP7 inhibition” (Dana-Farber Cancer Institute, Inc., priority 2018, dated 2025)

Key:
[1] = tested on: Ewing sarcoma cell lines, TP53 WT and mutant; experiment: Cell proliferation (CellTiter-Glo), panel of Ewing sarcoma cell lines; format: cell-based; conditions: same set of cell lines
Description: Cells were plated in 384-well culture-treated plates and allowed to settle overnight. After drug treatment and appropriate incubation time, cell viability was assessed using the CellTiter-Glo Luminescent Cell Viability Assay (Promega). Luminescence was read on a Fluostar Omega Reader (BMG Labtech).

[2] = tested on: Ewing sarcoma cell lines, TP53 WT and mutant; conditions: recently reported study; cited from earlier work
[3] = biological target: full length USP7 (Homo sapiens (Human), UniProt Q93009); experiment: Ub-AMC kinetic assay (ki and kinact); format: biochemical; conditions: pre-incubation 5 min-3 hours; read-out: inhibition constant (Ki)
Description: Full length USP7 was tested for its activity in Ubiquitin-AMC assay in presence or absence of inhibitors. USP7 (5 nM) was pre-incubated for 6 hours at room temperature with different concentrations of inhibitors or DMSO as a control in 50 mM HEPES pH 7.5, 0.5 mM EDTA, 11 μM ovalbumin, and 5 mM DTT. Ubiquitin-AMC (Boston Biochem) was then added to a final concentration of 500 nM. The initial rate of the reaction was measured by collecting fluorescence data at one minute intervals over 30-minute period using a Clariostar fluorescence plate reader at excitation and emission wavelength of 345 and 445 nm respectively. The calculated initial rate values were plotted against inhibitor concentrations to determine IC50s. All the experimental data were plotted using Prism GraphPad. All assays for each compound were performed at least twice for each compound.
To determine kobs, the time course curves were fit to the equation y=ymax(1−exp(−kobs·x)). The kobs values were then plotted against the inhibitor concentrations and fit to the equation y=kinact/(1+(ki/x)) to obtain the values for ki and kinact.

Chain of full length USP7 (Q93009 whole entry): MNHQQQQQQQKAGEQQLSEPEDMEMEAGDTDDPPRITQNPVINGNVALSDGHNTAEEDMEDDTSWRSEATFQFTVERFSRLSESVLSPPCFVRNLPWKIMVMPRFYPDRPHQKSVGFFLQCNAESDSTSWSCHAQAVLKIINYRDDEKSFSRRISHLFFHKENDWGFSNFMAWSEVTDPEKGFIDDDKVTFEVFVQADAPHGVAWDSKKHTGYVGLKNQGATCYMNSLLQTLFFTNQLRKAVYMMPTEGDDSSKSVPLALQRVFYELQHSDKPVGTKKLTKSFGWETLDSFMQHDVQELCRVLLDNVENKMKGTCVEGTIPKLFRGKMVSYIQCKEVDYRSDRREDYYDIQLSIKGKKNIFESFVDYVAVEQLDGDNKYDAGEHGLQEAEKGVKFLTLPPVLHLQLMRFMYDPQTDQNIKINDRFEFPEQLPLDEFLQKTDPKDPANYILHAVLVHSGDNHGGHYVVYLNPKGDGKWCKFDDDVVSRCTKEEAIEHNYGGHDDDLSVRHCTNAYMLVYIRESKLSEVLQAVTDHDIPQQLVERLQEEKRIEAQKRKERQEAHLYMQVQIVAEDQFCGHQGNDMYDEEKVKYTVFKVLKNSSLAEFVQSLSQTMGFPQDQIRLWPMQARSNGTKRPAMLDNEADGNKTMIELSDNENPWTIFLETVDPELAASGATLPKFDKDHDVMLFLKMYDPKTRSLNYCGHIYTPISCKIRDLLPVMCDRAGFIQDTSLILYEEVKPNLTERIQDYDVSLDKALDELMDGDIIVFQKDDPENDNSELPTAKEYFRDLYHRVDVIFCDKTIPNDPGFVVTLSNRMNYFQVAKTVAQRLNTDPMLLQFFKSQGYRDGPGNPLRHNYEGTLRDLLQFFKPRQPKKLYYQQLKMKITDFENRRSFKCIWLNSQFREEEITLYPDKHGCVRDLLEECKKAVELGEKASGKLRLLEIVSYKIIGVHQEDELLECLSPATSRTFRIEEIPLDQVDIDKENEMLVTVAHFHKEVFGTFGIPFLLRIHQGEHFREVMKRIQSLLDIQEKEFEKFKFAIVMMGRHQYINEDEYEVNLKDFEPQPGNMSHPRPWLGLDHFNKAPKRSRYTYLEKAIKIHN

Row | SMILES | specificity for TP53-WT expressing cells [1] | activity against WT and TP53-KO Ewing Sarcoma cells [2] | Ki [3] [nM]
1 | CC(=O)c1cc([N+](=O)[O-])c(Sc2cccc(Cl)c2Cl)s1 [P5091] | little to no specificity for TP53-WT expressing cells | equipotent activity against WT and TP53-KO Ewing Sarcoma cells | 
2 | CN1CCN(CCC(=O)Nc2ccc3c(=O)n(CC4(O)CCN(C(=O)CCCCNC(=O)c5ccc6c(Cl)c7c(nc6c5)CCCC7)CC4)cnc3c2)CC1 [compound 1, 9-chloro-N-(5-(4-hydroxy-4-((7-(3-(4-methylpiperazin-1-yl)propanamido)-4-oxoquinazolin-3(4H)-yl)methyl)piperidin-1-yl)-5-oxopentyl)-5,6,7,8-tetrahydroacridine-3-carboxamide] |  |  | 2.8 ± 1.8
